Reference: patent US20240423988A1, “Improvement of Tumor Immunogenicity by Means of Splicing-Controlling Compound” (Kyoto University, priority 2021, published 2024)

What was measured:
[1] = test system: colon, lung, and liver tissues; experiment: RNA-seq of normal tissues from Compound 1-administered mice; assay type: in vivo
Excerpt: In addition, the RNA-seq data corresponding to colon, lung, and liver tissues from Compound 1-administered mice was also examined to analyze the extent of splicing alterations. […] Considering that immune responses were not triggered by Compound 1 in these tissues, these altered splicing events in normal tissues were likely irrelevant to immunogenicity (FIGS. 2-2I to 2-3M).

[2] = Systemic administration of a high dose to normal mice for 4 weeks (autoimmune reactions); assay type: in vivo
Description: [FIG. 2-2] Continuation of FIG. 2. H to M: Compound 1 (100 mg/kg) or vehicle control (0.5% CMC-Na) was orally administered to 7-week-old female C57BL/6N mice twice daily for 7 continuous days (J and K) or once daily for 4 weeks (I, L, and M), while αPD-L1 antibody or isotype control (isotype IgG) was intraperitoneally injected once weekly. The experimental scheme is indicated in (H). Body weights (n=6/group) were monitored weekly (I). Mice were sacrificed on day 7 (n=5/group) to analyze peripheral blood (J) and spleen (K).
[FIG. 2-3] Continuation of FIG. 2. Land M: Mice were sacrificed on day 28 (n=3/group) to perform CD8 immunohistochemical staining (IHC). Scale bars represent 50 μm. The number of CD8+ cells was counted using ImageJ software in three areas of each tissue. All data are shown as the mean±SEM. Experiments were performed at least twice for B to G, or once for others. *** p<0.001 vs. vehicle control was determined using one-way ANOVA followed by Bonferroni's multiple comparisons test.
Next, to determine whether the enhancement of cancer immunity by co-administration of Compound 1 and αPD-L1 raises concerns regarding autoimmune reactions, a high dose of Compound 1 was systemically administered to normal mice for 4 weeks (FIG. 2-2H).

MC38 cells = experiment: IFN-γ signaling and expression of MHC class I components and PD-L1 in MC38 cells; assay type: cell-based, murine; conditions: for decrease in PD-L1 expression on the cell surface / increase in H2-K^b expression: 72 hours
Excerpt: MHC class I expressed in cancer cells is critical for neoantigen presentation, which is indispensable for CD8^+ T cell-dependent immune surveillance and tumor killing. To investigate whether Compound 1 modulates the neoantigen presentation pathway, first, the effects of Compound 1 on IFN-γ signaling and the expression of MHC class I components, including […] (B2M) and H2-K^b in MC38 cells, were examined because CD8^+ T cell-secreted IFN-γ is a major inducer of MHC class I components. […] In contrast, any changes in the expression of PD-L1 were not detected in host dendritic cells or macrophages. […] However, these alterations were likely not the functional mechanisms through which Compound 1 exerts its antitumor effects (FIGS. 1-2O and 1-2P), as enhanced antitumor effects of Compound 1 were observed when co-administered with αPD-L1.

B2m-knockout MC38 clones = experiment: B2m KO MC38 clones and negative control clone intradermally inoculated into mice; assay type: in vivo
Description: [FIG. 3-2] Continuation of FIG. 3. G to J: The experimental schema (G), tumor volumes (H), flow cytometric images (I), as well as quantitative data (J) of tumor-infiltrating CD8^+ T cells on day 23 are shown (n=5 to 9/group). * represents p<0.05, and ** represents p<0.01. K: Tumor volumes of mice (n=5 to 6/group). Mice were intraperitoneally injected with 35 μg of αPD-L1 antibody or isotype control (isotype IgG) once weekly on days 9 and 16 for NC and days 11 and 18 for B2M KO #2. * represents p<0.05. All data are shown as the mean±SEM. Experiments were performed at least twice for A to F, or once for others. Statistical significance was determined using unpaired Student's t-test for (H), (J), and (K) and one-way ANOVA followed by Bonferroni's multiple comparisons test for (D) and (F).
Furthermore, whether neoantigen presentation in cancer cells is important for the antitumor effects of Compound 1 was investigated by establishing a CRISPR-Cas9-mediated knockout of B2m, an essential component of MHC class I, using MC38 cells. […] It was further confirmed that surface H-2K^b on these cells disappeared (FIGS. 3-1C and 3-1D) without affecting IFN-γ signaling (FIG. 3-1A) and the expression of PD-L1 on the cell surface (FIGS. 3-1E and 3-1F).
Then, these B2m KO MC38 clones were intradermally inoculated into immunodeficient mice, and the antitumor effects of Compound 1 were evaluated (FIG. 3-2G).

## Clc1nc(NCc2ccco2)c2[nH]cnc2n1 [Compound 1]
[1]; colon, lung, liver
  induced splicing events fewer in normal tissues than in MC38 cells: 50-60%
[1]; data not shown
  validated splice-neoantigen forms in normal tissues: none of the validated splice-neoantigen forms were significantly induced
[2]; data not shown
  leukocyte numbers and biochemical parameters in peripheral blood: no alterations were observed
[2]; day 7, with or without αPD-L1
  spleen weight, leukocyte numbers, and expression of T cell activation markers in spleen and peripheral blood: no effect
[2]; day 28, irrespective of co-treatment with αPD-L1
  histological analysis of non-malignant tissues: CD8^+ T cells, inflammatory lesions: did not result in the accumulation of CD8^+ T cells or appearance of inflammatory lesions
[2]; throughout 4 weeks, with or without αPD-L1
  body weight changes: comparable
MC38 cells
  phosphorylation of STAT1 and STAT3 and expression of B2M protein: no such effects
MC38 cells; IFN-γ 0 ng/ml
  decrease in PD-L1 expression on the cell surface: 3.8%
  increase in H2-K^b expression: 11.1%
MC38 cells; IFN-γ 0.1 ng/ml
  decrease in PD-L1 expression on the cell surface: 3.2%
  increase in H2-K^b expression: 12.4%
MC38 cells; IFN-γ 1 ng/ml
  decrease in PD-L1 expression on the cell surface: 26.1%
B2m-knockout MC38 clones; B2m KO clones
  antitumor effects (tumor growth): completely abolished
B2m-knockout MC38 clones; B2m KO-derived tumors
  number of CD8^+ T cells in tumors: no longer inducible
B2m-knockout MC38 clones; negative control clone
  antitumor effects (tumor growth): suppressed tumor growth
